# Test results from patent publication US20250186652A1, “ARTICLES AND METHODS FOR IMPROVED TISSUE HEALING” (UNIVERSITY OF MISSISSIPPI MEDICAL CENTER, priority 2022, published 2025).
# B1: PDGF-BB: platelet-derived growth factor-BB, controlled release from fibrin-based delivery system (protein, UniProt P01127 82-190, looked up)
# Platelet-derived growth …: SLGSLTIAEPAMIAECKTRTEVFEISRRLIDRTNANFLVWPPCVEVQRCSGCCNNRNVQCRPTQVQLRPVQVRKIEIVRKKPIFKKATVTLEDHLACKCETVAAARPVT
# Key:
# [1] = tested on: CTGF; conditions: cells under hypoxic conditions; Haung, Adah et al. 2009; cited from earlier work
# [2] = tested on: MRC-5 fibroblast cells; assay: In vitro fibroblast proliferation/viability with M6P and TGF-β1; type: cell-based
# Text: FIGS. 8A-B show images illustrating that M6P competes with TGFβ. (A) Use of MRC-5 fibroblast cells in an in vitro assessment of concentration effects of TGFβ and M6P as well as effectiveness of M6P to block the proliferative effects of TGFβ. (B) Schematic showing potential mechanism of M6P and TGFβ competing for the same M6P receptor that leads to increase gene regulation.
# [3] = tested on: human dermal fibroblast and keratinocyte; conditions: Clavel, Barragan-Montero et al. 2005; cited from earlier work
# [4] = tested on: human tenocytes; conditions: in vitro; Wong, Tang et al. 2003; cited from earlier work
# [5] = tested on: Hif-1 alpha; assay: Inhibition of Hif-1 alpha leading to CTGF in vitro
# Text: Fructose-1,6-bisphosphate (FBP) is an intermediate in glycolysis which, if provided to cells could allow them to bypass two ATP-requiring steps for energy production. […] M6P is known to isomerize to fructose-6-phosphate (F6P), an intermediate of glycolysis in the step prior to FBP (FIG. 1). Therefore, one might hypothesize that treatment with M6P may decrease production of CTGF by decreasing the need for substrate-level phosphorylation, which would be vital in hypoxic conditions. In this regard, the present inventors have shown that […] produces the inhibition of Hif-1 alpha leading to CTGF in vitro. Alternatively, latent TGF-β is activated through its binding with the M6P/IGFII receptor (Ghahary, Tredget et al. 1999). Competitive inhibition of the activation of TGF-β through treatment with M6P is considered another method by which M6P may inhibit fibrosis. It is thought that M6P may have more potential for reducing fibrosis than FBP because its mechanism of action is not dependent upon a hypoxic environment.
# [6] = tested on: digital flexor tendons; conditions: three weeks after operation; vs operated controls; cited from earlier work
molecule,measurement,setting,value
"O=C(COP(=O)(O)O)[C@@H](O)[C@H](O)[C@H](O)COP(=O)(O)O [FBP, Fructose-1,6-bisphosphate]",production of CTGF,[1],decreases production of CTGF to near control conditions
TGF-β1: TGF-β1 growth factor added to fibroblast cells [reference compound],cell proliferation,[2]; TGF-β1 added at 8 pM,enhanced cell proliferation
same,toxicity to the cells,[2]; TGF-β1 at the higher doses,toxic
"O=C[C@@H](O)[C@@H](O)[C@H](O)[C@H](O)COP(=O)(O)O [M6P, mannose 6 phosphate]",inhibition of proliferation,[3],potent inhibitor
same,cell proliferation of fibroblast cells,[2]; 0.05 μM M6P,enhance cell proliferation
same,toxic effect on fibroblast cells,[2]; 0.05 μM M6P,without evidence of a toxic effect
same,TGF-β1-induced proliferation,[2]; M6P added along with TGF-β1,increased proliferation was eliminated
C[C@@H]1C[C@H]2[C@@H]3CCC4=CC(=O)C=C[C@]4(C)[C@@]3(F)[C@@H](O)C[C@]2(C)[C@@]1(O)C(=O)CO [dexamethasone],"tenocyte viability, mitotic activity and collagen production",[4],negative effects
"O=C(CO)[C@@H](O)[C@H](O)[C@H](O)COP(=O)(O)O [F6P, fructose 6 phosphate]",inhibition of Hif-1 alpha leading to CTGF,[5],inhibition
B1,range of motion (ROM),[6],significantly greater ROM
